Assay results published in US11952346B2, “Modulators of mas-related G-protein receptor X2 and related products and methods” (Escient Pharmaceuticals, Inc., priority 2020, dated 2024).

These compounds were tested against T1, human MRGPRX2 (Homo sapiens, UniProt Q96LB1) (assay: MRGPRX2 antagonist activity, IP-One HTRF assay in CHO cells expressing human MRGPRX2 versus Cortistatin-14). Conditions: CHO cells stably expressing human MRGPRX2; versus 0.3 uM Cortistatin-14 agonist; IP-1 HTRF readout; read-out: MRGPR2 Antagonist Activity.
T1 construct: expressed in transfected cells
T1 sequence (Q96LB1 1-330): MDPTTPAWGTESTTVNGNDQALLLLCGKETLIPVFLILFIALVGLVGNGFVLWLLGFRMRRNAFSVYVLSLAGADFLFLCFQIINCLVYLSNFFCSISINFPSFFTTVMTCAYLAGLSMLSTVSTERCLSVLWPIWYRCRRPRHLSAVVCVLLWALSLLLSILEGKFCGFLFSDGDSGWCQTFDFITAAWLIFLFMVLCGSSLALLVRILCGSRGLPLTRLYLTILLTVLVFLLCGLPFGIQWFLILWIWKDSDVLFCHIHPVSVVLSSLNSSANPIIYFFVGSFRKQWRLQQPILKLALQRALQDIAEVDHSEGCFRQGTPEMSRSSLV
Type: cell-based
Procedure: CHO cells stably transfected to express human MRGPRX2 were maintained in an incubator at 37° C. with 5% CO2 and grown in F12 (HAM) media with 10% fetal bovine serum (FBS), 1% Glutamax, 1% penicillin/streptomycin, 800 μg/mL Geneticin (G418), and 300 μg/mL Hygromycin B. Cells were plated in a 384-well assay plate at 20,000 cells per well in 12 μL of Opti-MEM and kept in an incubator overnight. On the day of the assay, compounds solubilized at 10 mM in DMSO were added as a 10-point curve (30 uM final top concentration with 1:3 serial dilutions) using a Tecan D300E digital dispenser. Agonists were diluted in assay buffer (final concentrations of 5.7 mM Tris-HCl, 43 mM NaCl, 50 mM LiCI, pH=8) and 2 μL of the agonist Cortistatin-14 (CPC Scientific, catalog CORT-002) are added to each well. Final concentrations of agonists were […] Cortistatin-14. Final concentrations of DMSO were kept consistent across the plate. Plates were incubated in the dark for 1 hr at 37° C. and then for 1 hr at room temperature. IP-1 standards and HTRF detection reagents were added according to the IP-One—Gq Kit purchased from Cisbio (part number 621PAPEJ) and incubated in the dark for 1 hr at room temperature. The plate was read on a Molecular Devices SpectraMax iD5 plate reader. The HTRF ratio was calculated from the raw data and graphed using GraphPad Prism to calculate an IC50 value for each compound.
The activity ranges are denoted as follows: “+++++” denotes antagonist activity <100 nM; “++++” denotes antagonist activity between 100 and 500 nM; “+++” denotes activity between 501 and 1000 nM; “++” denotes activity between 1001 and 2500 nM; and “+” denotes activity >2500 nM.

IC50 [nM]	Compound
100 to 500	COc1ccc(C(=O)N[C@H]2CC[C@@H](Nc3cc(C(F)(F)F)nc(C(F)(F)F)c3)CC2)cc1 [1-3]
100 to 500	CC1=NN(c2ccc(C(=O)N[C@H]3CC[C@@H](Nc4cc(C(F)(F)F)nc(C(F)(F)F)c4)CC3)cc2)C(=O)C1 [4-33]
1000 to 2500	COc1ccc(C(=O)N[C@H]2CCC[C@@H](Nc3cc(C(F)(F)F)cc(C(F)(F)F)c3)C2)cc1 (stereo in doubt) [example 5, N-((1S,3R)-3-((3,5-bis(trifluoromethyl)phenyl)amino)cyclohexyl)-4-methoxybenzamide]
100 to 500	Nc1nc(C(=O)N[C@H]2CC[C@@H](Nc3cc(C(F)(F)F)nc(C(F)(F)F)c3)CC2)cs1 [4-27]
501 to 1000	Cc1cc(C)n(-c2ccc(C(=O)N[C@H]3CC[C@@H](Nc4cc(C(F)(F)F)nc(C(F)(F)F)c4)CC3)cc2)n1 [4-24]
1000 to 2500	N#Cc1cccc(C(=O)N[C@H]2CC[C@@H](Nc3cc(C(F)(F)F)nc(C(F)(F)F)c3)CC2)c1 [1-4]
1000 to 2500	O=C(N[C@H]1CC[C@@H](Nc2cc(C(F)(F)F)cc(C(F)(F)F)c2)CC1)c1ccc(F)cc1 [Example 6, N-((1S,4S)-4-((3,5-bis(trifluoromethyl)phenyl)amino)cyclohexyl)-4-fluorobenzamide]
> 2500	CCNc1nc(N[C@H]2CC[C@@H](NC(=O)c3ccc(OC)cc3)CC2)cc(C(F)(F)F)n1 [Example 12, N-(1S,4S)-[4-[[2-(ethylamino)-6-(trifluoromethyl)pyrimidin-4-yl]amino]cyclohexyl]-4-methoxy-benzamide]
501 to 1000	O=C(N[C@H]1CC[C@@H](Nc2cc(C(F)(F)F)nc(C(F)(F)F)c2)CC1)c1ccc2c(c1)CCCC2 [4-42]
1000 to 2500	CN1CCc2c(cccc2C(=O)N[C@H]2CC[C@@H](Nc3cc(C(F)(F)F)nc(C(F)(F)F)c3)CC2)C1 [4-34]
501 to 1000	CN(C)c1nc(N[C@H]2CC[C@@H](NC(=O)c3ccc(F)cc3)CC2)cc(C(F)(F)F)n1 [1-8]
> 2500	N#Cc1ccc(C(=O)N[C@H]2CC[C@@H](Nc3cc(C(F)(F)F)nc(C(F)(F)F)c3)CC2)cc1 [4-13]
501 to 1000	CN(C)c1nc(N[C@H]2CC[C@@H](NC(=O)c3ccccc3)CC2)cc(C(F)(F)F)n1 [1-10]
1000 to 2500	CN1CCC(C(=O)N[C@H]2CC[C@@H](Nc3cc(C(F)(F)F)nc(C(F)(F)F)c3)CC2)C1 (stereo partly shown) [4-40]
100 to 500	O=C(N[C@H]1CC[C@@H](Nc2cc(C(F)(F)F)nc(C(F)(F)F)c2)CC1)c1ccc2nccn2c1 [4-39]
> 2500	COc1ccc(C(=O)N[C@@H]2CCC[C@H](Nc3cc(C(F)(F)F)nc(C(F)(F)F)c3)C2)cc1 [example 1, N-((1R,3S)-3-((2,6-bis(trifluoromethyl)pyridin-4-yl)amino)cyclohexyl)-4-methoxybenzamide]

IC50 [nM]	Compound
501 to 1000	COc1ccc(C(=O)N[C@H]2CC[C@@H](Nc3ccc(F)c(C(F)(F)F)c3)CC2)cc1 [2-2]
100 to 500	O=C(N[C@H]1CC[C@@H](Nc2cc(C(F)(F)F)nc(C(F)(F)F)c2)CC1)c1ccc(-n2cnnn2)cc1 [4-30]
100 to 500	O=C(N[C@H]1CC[C@@H](Nc2cc(C(F)(F)F)nc(C(F)(F)F)c2)CC1)n1cccc1 [4-2]
< 100	N=C(N)Nc1ccc(C(=O)N[C@H]2CC[C@@H](Nc3cc(C(F)(F)F)nc(C(F)(F)F)c3)CC2)cc1 (single isomer, unassigned) [4-55]
100 to 500	O=C(N[C@H]1CC[C@@H](Nc2cc(C(F)(F)F)nc(C(F)(F)F)c2)CC1)c1ccc(-n2cccn2)cc1 [4-31]
501 to 1000	CN(C)c1ccc(C(=O)N[C@H]2CC[C@@H](Nc3cc(C(F)(F)F)nc(N(C)C)n3)CC2)cc1 [4-17]
1000 to 2500	COc1ccc(C(=O)N[C@H]2CC[C@@H](Nc3cc(Nc4cccc(C)c4)nc(C(F)(F)F)c3)CC2)cc1 [Example 9, 4-methoxy-N-[4-[[2-(3-methylanilino)-6-(trifluoromethyl)-4-pyridyl]amino]cyclohexyl]benzamide]
501 to 1000	O=C(N[C@H]1CC[C@@H](Nc2cc(C(F)(F)F)nc(C(F)(F)F)c2)CC1)c1ccccc1 [example 3, N-((1S,4S)-4-((2,6-bis(trifluoromethyl)pyridin-4-yl)amino)cyclohexyl)benzamide]
1000 to 2500	CN1CCCc2cccc(C(=O)N[C@H]3CC[C@@H](Nc4cc(C(F)(F)F)nc(C(F)(F)F)c4)CC3)c21 [4-26]
100 to 500	CN(C)c1ccc(C(=O)N[C@H]2CC[C@@H](Nc3cc(C(F)(F)F)nc(C(F)(F)F)c3)CC2)cc1 [1-2]
501 to 1000	O=C(N[C@H]1CC[C@@H](Nc2cc(C(F)(F)F)nc(C(F)(F)F)c2)CC1)c1cc2c([nH]1)CCCC2 [4-37]
1000 to 2500	CN(C)C(=O)N[C@H]1CC[C@@H](Nc2cc(C(F)(F)F)nc(C(F)(F)F)c2)CC1 [4-29]
100 to 500	CN(C)c1cccc(C(=O)N[C@H]2CC[C@@H](Nc3cc(C(F)(F)F)nc(C(F)(F)F)c3)CC2)c1 [Example 15, N-(1S,4S)-[4-[[2,6-bis(trifluoromethyl)-4-pyridyl]amino]cyclohexyl]-3-(dimethylamino)benzamide]
1000 to 2500	CN1CCCc2ccc(C(=O)N[C@H]3CC[C@@H](Nc4cc(C(F)(F)F)nc(C(F)(F)F)c4)CC3)cc21 [4-15]
100 to 500	CNc1ccc(C(=O)N[C@H]2CC[C@@H](Nc3cc(C(F)(F)F)nc(C(F)(F)F)c3)CC2)cc1 [4-4]

Compound	IC50 [nM]
N#Cc1ccc(N[C@H]2CC[C@@H](NC(=O)c3ccnc4[nH]ncc34)CC2)cc1C(F)(F)F [4-59]	< 100
Cc1cc(N[C@H]2CC[C@@H](NC(=O)c3ccc4cncn4c3)CC2)cc(C(F)(F)F)c1C#N [5-9]	< 100
CN(C)c1cccc(C(=O)N[C@H]2CC[C@@H](Nc3ccc(C#N)c(C(F)(F)F)c3)CC2)c1 [1-16]	100 to 500
N#Cc1ccc(N[C@H]2CC[C@@H](NC(=O)c3c[nH]c4ncccc34)CC2)cc1C(F)(F)F [4-57]	< 100
Cc1cn(-c2ccc(C(=O)N[C@H]3CC[C@@H](Nc4ccc(C#N)c(C(F)(F)F)c4)CC3)cc2)cn1 [4-51]	< 100
N#Cc1ccc(N[C@H]2CC[C@@H](NC(=O)c3ccc(NCC(F)F)cc3)CC2)cc1C(F)(F)F [4-53]	< 100
Cc1cc(N[C@H]2CC[C@@H](NC(=O)c3ccc(N(C)CC(F)F)cc3)CC2)cc(C(F)(F)F)c1C#N [5-7]	< 100
N#Cc1ccc(N[C@H]2CC[C@@H](NC(=O)c3cn[nH]c3Cl)CC2)cc1C(F)(F)F [4-45]	< 100
COc1ccc(C(=O)NC2CCC(Nc3ccc(C#N)c(C(F)(F)F)c3)CC2)cc1 (stereo not shown) [Example 4, N-[4-[4-cyano-3-(trifluoromethyl)anilino]cyclohexyl]-4-methoxy-benzamide]	100 to 500
CNc1ccc(C(=O)N[C@H]2CC[C@@H](Nc3ccc(C#N)c(C(F)(F)F)c3)CC2)cc1 [4-47]	< 100
CNc1cc(C(=O)N[C@H]2CC[C@@H](Nc3ccc(C#N)c(C(F)(F)F)c3)CC2)ccn1 [4-66]	< 100
N#Cc1ccc(N[C@H]2CC[C@@H](NC(=O)c3cccc4ncsc34)CC2)cc1C(F)(F)F [1-24]	1000 to 2500
N#Cc1ccc(N[C@H]2CC[C@@H](NC(=O)c3cn[nH]c3C3CC3)CC2)cc1C(F)(F)F [4-46]	< 100
CC(C)S(=O)(=O)Nc1ccc(C(=O)N[C@H]2CC[C@@H](Nc3ccc(C#N)c(C(F)(F)F)c3)CC2)cc1 [1-14]	< 100
Cc1cc(N[C@H]2CC[C@@H](NC(=O)c3ccc(NCC(F)F)cc3)CC2)cc(C(F)(F)F)c1C#N [5-8]	< 100
